target: T1, His-tagged recombinant human TrkA (Homo sapiens, UniProt P04629); assay: TrkA LanthaScreen Eu Kinase Binding Assay; conditions: averaged IC50 values; read-out: TrkA enzyme IC50
T1 construct: 6HIS tagged cytoplasmic domain from Invitrogen, Catalog No. PV3144; purchased Invitrogen PV3144
Experimental: TrkA binding activity was determined in a TrkA LanthaScreen™ Eu Kinase Binding Assay. 5 nM His-tagged recombinant human TrkA (6HIS tagged cytoplasmic domain from Invitrogen, Catalog No. PV3144) was incubated with 4 nM Alexa-Fluor® Tracer 236 (Invitrogen Cat. No. PV5592), 2 nM biotinylated anti-His (Invitrogen Cat. No. PV6090), and 2 nM europium-labeled Streptavidin (Invitrogen Cat. No. PV5899), in buffer (25 mM MOPS, pH 7.5, 5 mM MgCl2, 0.005% Triton X-100). Three fold serial dilutions of compounds of the invention in DMSO were added to a final percentage of 2% DMSO. After 60-minute incubation at 22° C., the reaction was measured using the EnVision mutlimode plate reader (PerkinElmer) via TR-FRET dual wavelength detection at […]. The percent of control was calculated using a ratiometric emission factor. The IC50 values were determined by fitting a four parameter model to the percent of control data.
Table A provides averaged IC50 values for compounds of the invention when tested in the assay of Example A, where A represents an averaged IC50 value <100 nM; and B represents an averaged IC50 value from 100 to 1,000 nM.

T1 sequence (P04629 440-796 limits assumed): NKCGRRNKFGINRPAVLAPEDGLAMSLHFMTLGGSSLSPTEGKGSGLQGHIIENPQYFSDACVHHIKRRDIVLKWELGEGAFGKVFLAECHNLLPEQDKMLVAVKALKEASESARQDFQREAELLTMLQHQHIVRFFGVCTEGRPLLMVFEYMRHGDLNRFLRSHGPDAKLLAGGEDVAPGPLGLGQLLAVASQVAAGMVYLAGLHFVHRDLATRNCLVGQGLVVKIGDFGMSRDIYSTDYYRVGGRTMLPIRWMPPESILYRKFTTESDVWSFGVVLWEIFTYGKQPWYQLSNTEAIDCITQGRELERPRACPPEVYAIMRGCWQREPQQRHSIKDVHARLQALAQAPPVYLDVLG

IC50, < 100 nM:
COCCN1C[C@@H](NC(=O)Nc2cccc3c(Br)n[nH]c23)[C@H](c2ccccc2)C1 (relative stereo) [Example 3, 1-(3-bromo-1H-indazol-7-yl)-3-(trans-1-(2-methoxyethyl)-4-phenylpyrrolidin-3-yl)urea]
COCCN1C[C@@H](NC(=O)Nc2cccc3c(-c4ccccc4)n[nH]c23)[C@H](c2ccccc2)C1 (relative stereo) [Example 4, 1-(trans-1-(2-methoxyethyl)-4-phenylpyrrolidin-3-yl)-3-(3-phenyl-1H-indazol-7-yl)urea]
COCCN1C[C@@H](NC(=O)Nc2c(-c3ccccc3)nc3ccccn23)[C@H](c2ccccc2)C1 (relative stereo) [Example 6, 1-((trans)-1-(2-methoxyethyl)-4-phenylpyrrolidin-3-yl)-3-(2-phenylimidazo[1,2-a]pyridin-3-yl)urea]
COCCN1C[C@@H](NC(=O)Nc2c(-c3ccccc3)nc3ncccn23)[C@H](c2ccccc2)C1 (relative stereo) [Example 7, 1-((trans)-1-(2-methoxyethyl)-4-phenylpyrrolidin-3-yl)-3-(2-phenylimidazo[1,2-a]pyrimidin-3-yl)urea]
COCCN1C[C@@H](NC(=O)Nc2c(-c3ccccc3)nc3scnn23)[C@H](c2ccccc2)C1 (relative stereo) [Example 8, 1-((trans)-1-(2-methoxyethyl)-4-phenylpyrrolidin-3-yl)-3-(6-phenylimidazo[2,1-b][1,3,4]thiadiazol-5-yl)urea]
COCCN1C[C@@H](NC(=O)Nc2c(-c3ccccc3)nc3sccn23)[C@H](c2ccccc2)C1 (relative stereo) [Example 9, 1-((trans)-1-(2-methoxyethyl)-4-phenylpyrrolidin-3-yl)-3-(6-phenylimidazo[2,1-b]thiazol-5-yl)urea]
COCCN1C[C@@H](NC(=O)Nc2c(-c3ccccc3)nc3cnccn23)[C@H](c2ccccc2)C1 (relative stereo) [Example 10, 1-((trans)-1-(2-methoxyethyl)-4-phenylpyrrolidin-3-yl)-3-(2-phenylimidazo[1,2-a]pyrazin-3-yl)urea]
COCCN1C[C@@H](NC(=O)Nc2c(-c3ccccc3)nc3c(C)cccn23)[C@H](c2ccccc2)C1 (relative stereo) [Example 11, 1-((trans)-1-(2-methoxyethyl)-4-phenylpyrrolidin-3-yl)-3-(8-methyl-2-phenylimidazo[1,2-a]pyridin-3-yl)urea]
COCCN1C[C@@H](NC(=O)Nc2c(-c3ccccc3)nc3cc(C)ccn23)[C@H](c2ccccc2)C1 (relative stereo) [Example 12, 1-((trans)-1-(2-methoxyethyl)-4-phenylpyrrolidin-3-yl)-3-(7-methyl-2-phenylimidazo[1,2-a]pyridin-3-yl)urea]
COCCN1C[C@@H](NC(=O)Nc2c(-c3ccccc3)nc3c(Cl)cccn23)[C@H](c2ccccc2)C1 (relative stereo) [Example 14, 1-(8-chloro-2-phenylimidazo[1,2-a]pyridin-3-yl)-3-((trans)-1-(2-methoxyethyl)-4-phenylpyrrolidin-3-yl)urea]
COCCN1C[C@@H](NC(=O)Nc2c(-c3ccccc3)nc3c(C(F)(F)F)cccn23)[C@H](c2ccccc2)C1 (relative stereo) [Example 16, 1-((trans)-1-(2-methoxyethyl)-4-phenylpyrrolidin-3-yl)-3-(2-phenyl-8-(trifluoromethyl)imidazo [1,2-a]pyridin-3-yl)urea]
COCCN1C[C@@H](NC(=O)Nc2c(-c3ccccc3)nc3ccc(F)cn23)[C@H](c2ccccc2)C1 (relative stereo) [Example 17, 1-(6-fluoro-2-phenylimidazo[1,2-a]pyridin-3-yl)-3-((trans)-1-(2-methoxyethyl)-4-phenylpyrrolidin-3-yl)urea]
COCCN1C[C@@H](NC(=O)Nc2c(-c3ccccc3)[nH]c3ccccc23)[C@H](c2ccccc2)C1 (relative stereo) [Example 26, 1-((trans)-1-(2-methoxyethyl)-4-phenylpyrrolidin-3-yl)-3-(2-phenyl-1H-indol-3-yl)urea]
COCCN1C[C@@H](NC(=O)Nc2c(-c3ccccc3)nc3c(C)cccn23)[C@H](c2ccccc2)C1 [Example 15, 1-((3S,4R)-1-(2-methoxyethyl)-4-phenylpyrrolidin-3-yl)-3-(8-methyl-2-phenylimidazo[1,2-a]pyridin-3-yl)urea]
COCCN1C[C@@H](NC(=O)Nc2c(-c3ccccc3)nc3c(F)cccn23)[C@H](c2ccccc2)C1 [Example 18, 1-(8-fluoro-2-phenylimidazo[1,2-a]pyridin-3-yl)-3-((3S,4R)-1-(2-methoxyethyl)-4-phenylpyrrolidin-3-yl)urea]
COCCN1C[C@@H](NC(=O)Nc2c(-c3ccccc3)nc3c(C)nccn23)[C@H](c2ccccc2)C1 [Example 19, 1-((3S,4R)-1-(2-methoxyethyl)-4-phenylpyrrolidin-3-yl)-3-(8-methyl-2-phenylimidazo[1,2-a]pyrazin-3-yl)urea]
COCCN1C[C@@H](NC(=O)Nc2c(-c3ccccc3)nc3c(=O)[nH]ccn23)[C@H](c2ccc(F)c(F)c2)C1 [Example 21, 1-((3S,4R)-4-(3,4-difluorophenyl)-1-(2-methoxyethyl)pyrrolidin-3-yl)-3-(8-oxo-2-phenyl-7,8-dihydroimidazo[1,2-a]pyrazin-3-yl)urea]
COCCN1C[C@@H](NC(=O)Nc2c(-c3ccccc3)nc3c(OC)nccn23)[C@H](c2ccc(F)c(F)c2)C1 [Example 22, 1-((3S,4R)-4-(3,4-difluorophenyl)-1-(2-methoxyethyl)pyrrolidin-3-yl)-3-(8-methoxy-2-phenylimidazo[1,2-a]pyrazin-3-yl)urea]
COCCN1C[C@@H](NC(=O)Nc2c(-c3ccccc3)nc3c(C)nccn23)[C@H](c2cc(F)cc(F)c2)C1 [Example 23, 1-((3S,4R)-4-(3,5-difluorophenyl)-1-(2-methoxyethyl)pyrrolidin-3-yl)-3-(8-methyl-2-phenylimidazo[1,2-a]pyrazin-3-yl)urea]
COCCN1C[C@@H](NC(=O)Nc2c(-c3ccccc3)nc3c(=O)n(C)ccn23)[C@H](c2ccc(F)c(F)c2)C1 [Example 24, 1-((3S,4R)-4-(3,4-difluorophenyl)-1-(2-methoxyethyl)pyrrolidin-3-yl)-3-(7-methyl-8-oxo-2-phenyl-7,8-dihydroimidazo[1,2-a]pyrazin-3-yl)urea]
CCn1ccn2c(NC(=O)N[C@@H]3CN(CCOC)C[C@H]3c3ccc(F)c(F)c3)c(-c3ccccc3)nc2c1=O [Example 25, 1-((3S,4R)-4-(3,4-difluorophenyl)-1-(2-methoxyethyl)pyrrolidin-3-yl)-3-(7-ethyl-8-oxo-2-phenyl-7,8-dihydroimidazo[1,2-a]pyrazin-3-yl)urea]
COCCN1C[C@@H](NC(=O)Nc2c(-c3ccccc3)nc3c(C)nccn23)[C@H](c2ccc(F)cc2)C1 [Example 27, 1-((3S,4R)-4-(4-fluorophenyl)-1-(2-methoxyethyl)pyrrolidin-3-yl)-3-(8-methyl-2-phenylimidazo[1,2-a]pyrazin-3-yl)urea]

IC50, 100 to 1000 nM:
COCCN1C[C@@H](NC(=O)Nc2cccc3cn[nH]c23)[C@H](c2ccccc2)C1 (relative stereo) [Example 1, 1-(1H-indazol-7-yl)-3-(trans-1-(2-methoxyethyl)-4-phenylpyrrolidin-3-yl)urea di-trifluoroacetate]
COCCN1C[C@@H](NC(=O)Nc2ccc(C)c3cn[nH]c23)[C@H](c2ccccc2)C1 (relative stereo) [Example 2, 1-(trans-1-(2-methoxyethyl)-4-phenylpyrrolidin-3-yl)-3-(4-methyl-1H-indazol-7-yl)urea di-trifluoroacetate]
COCCN1C[C@@H](NC(=O)Nc2c(-c3ccccc3)nc3sc(C)cn23)[C@H](c2ccccc2)C1 (relative stereo) [Example 5, 1-((trans)-1-(2-methoxyethyl)-4-phenylpyrrolidin-3-yl)-3-(2-methyl-6-phenylimidazo[2,1-b]thiazol-5-yl)urea]
COCCN1C[C@@H](NC(=O)Nc2c(-c3ccccc3)nc3ccc(C)cn23)[C@H](c2ccccc2)C1 (relative stereo) [Example 13, 1-((trans)-1-(2-methoxyethyl)-4-phenylpyrrolidin-3-yl)-3-(6-methyl-2-phenylimidazo[1,2-a]pyridin-3-yl)urea]
COCCN1C[C@@H](NC(=O)NC2=C(c3ccccc3)C(=O)c3ccccc32)[C@H](c2ccc(F)c(F)c2)C1 [Example 28, 1-((3S,4R)-4-(3,4-difluorophenyl)-1-(2-methoxyethyl)pyrrolidin-3-yl)-3-(1-oxo-2-phenyl-1H-inden-3-yl)urea]
